Assay results as given in PMC8765781, “A platform of assays for the discovery of anti-Zika small-molecules with activity in a 3D-bioprinted outer-blood-retina model” (PLoS ONE, 2022).
Where two headings read alike, the source gives them in different places.

Key:
[1] = tested on: ZIKV-RLuc (Cambodian strain FSS13025); test: microbe, parasite or virus in culture; assay type: cell-based, Zika virus
[2] = Zika virus, Vero, read-out: Log AC50 (M) (converted)

| Compound | CC-v2 (curve class classification v2 of the dose response curve) [1] | Efficacy (difference between neutral response and maximum compound response) [1] | Max Resp (difference between neutral response and compound response for highest compound concentration) [1] | AC50 ([1]; Zika virus, Vero) | AC50 [1, 2] | Log AC50 (M) (Vero cells) | AC50 (Vero cells) | AC50 [1] | Log AC50 (M) [1] | Curve class [1] | Efficacy [1] | Emax ([1]; Zika virus, Vero, read-out: Max response) | Efficacy (difference between neutral response and maximum compound response) (Vero cells) | Max Resp (difference between neutral response and compound response for highest compound concentration) (Vero cells) |
| --- | --- | --- | --- | --- | --- | --- | --- | --- | --- | --- | --- | --- | --- | --- |
| Cc1nc(Nc2ncc(C(=O)Nc3c(C)cccc3Cl)s2)cc(N2CCN(CCO)CC2)n1 [NCGC00181129-05] | -1.1 | -120.53 | -95.603 | 8.51e-08 M | 8.51e-08 M | -7.0699 M |  |  |  |  |  |  |  |  |
| COC(=O)[C@]12CCC(C)(C)C[C@H]1[C@H]1C(=O)C=C3[C@@]4(C)C=C(C#N)C(=O)C(C)(C)[C@@H]4CC[C@@]3(C)[C@]1(C)CC2 [NCGC00186460-02] | -1.1 | -99.409 | -99.593 | 3.69e-07 M | 3.69e-07 M | -6.4327 M | 0.369 µM |  |  |  |  |  |  |  |
| NC1(c2ccc(-c3nc4ccn5c(=O)[nH]nc5c4cc3-c3ccccc3)cc2)CCC1 [NCGC00186465-01] | -2.1 | -117.339 | -99.979 | 1.85e-05 M | 1.85e-05 M | -4.7327 M | 18.5 µM |  |  |  |  |  |  |  |
| NC1(c2ccc(-c3nc4ccn5c(=O)[nH]nc5c4cc3-c3ccccc3)cc2)CCC1 [NCGC00186465-04] | -2.1 | -108.058 | -98.999 |  |  | -4.6827 M |  | 2.08e-05 M | -4.6827 |  |  |  |  |  |
| C=CC(=O)N1CCC[C@@H](n2nc(-c3ccc(Oc4ccccc4)cc3)c3c(N)ncnc32)C1 [NCGC00187912-02] |  | -91.422 | -83.345 | 9.28e-06 M | 9.27e-06 M | -5.0327 M | 9.28 µM |  |  |  |  |  |  |  |
| O=C(NCc1ccccc1)c1csc(Nc2ccncn2)n1 [NCGC00187983-01] | -2.1 | -99.244 | -100.568 | 1.47e-05 M | 1.47e-05 M | -4.8327 M | 14.7 µM |  |  |  |  |  |  |  |
| CC(NCc1ccc2c(c1)[nH]/c(=N\C(=O)c1ccc(-c3cn[nH]c3)s1)n2CC(C)(C)O)C(C)(C)C (stereo not drawn) [NCGC00188382-05] | -1.1 | -97.056 | -99.599 | 1.47e-06 M | 1.47e-06 M | -5.8327 M | 1.47 µM |  |  |  |  |  |  |  |
| ClC1=C(Cl)[C@]2(Cl)[C@@H]3[C@@H]4C[C@@H]([C@H]5O[C@@H]45)[C@@H]3[C@@]1(Cl)C2(Cl)Cl [NCGC00244579-01] | -3 | -117.983 | -96.11 | 7.59e-05 M | 7.59e-05 M | -4.1199 M | 75.9 µM |  |  |  |  |  |  |  |
| CC(=O)O/N=C1\C(=O)N(Cc2cc(Cl)ccc2Cl)c2ccc(Cl)cc21 [NCGC00247668-01] | -2.1 | -136.639 | -99.757 | 1.65e-05 M | 1.65e-05 M | -4.7827 M | 16.5 µM |  |  |  |  |  |  |  |
| N=c1c2c(-c3ccccc3)c(-c3ccccc3)n(Cc3ccccc3)c2ncn1C1CCC(O)CC1 (stereo not drawn) [NCGC00247785-05] | -1.1 | -97.244 | -99.645 | 4.96e-06 M | 4.96e-06 M | -5.3045 M | 4.96 µM |  |  |  |  |  |  |  |
| COc1c(C)cnc(Cn2cnc3c(Cl)nc(N)nc32)c1C [NCGC00247877-01] | -1.2 | -34.341 | -31.198 | 1.85e-07 M | 1.85e-07 M | -6.7327 M | 0.185 µM |  |  |  |  |  |  |  |
| CCNC(=O)c1noc(-c2cc(C(C)C)c(O)cc2O)c1-c1ccc(CN2CCOCC2)cc1 [NCGC00247878-08] | -2.3 | -68.402 | -90.15 | 3.69e-05 M | 3.69e-05 M | -4.4327 M | 36.9 µM |  |  |  |  |  |  |  |
| CCNC(=O)c1cc2c(-c3cc(OCCN4CCCC4)c(Cl)cc3Cl)nc(N)nc2s1 [NCGC00247879-01] |  |  |  |  |  |  |  |  |  | 4 | -14.131 | 2.04% | -14.131 | 2.045 |
| O=C(N[C@@H](c1ccccc1)[C@@H]1CCCCN1)c1cccc(C(F)(F)F)c1Cl [NCGC00247954-02] | -2.1 | -87.335 | -99.352 | 4.27e-05 M | 4.27e-05 M | -4.3699 M | 42.7 µM |  |  |  |  |  |  |  |
| C1=C/COCc2cc(ccc2OCCN2CCCC2)Nc2nccc(n2)-c2cccc(c2)OCC/1 [NCGC00249346-02] | -1.1 | -91.692 | -99.088 | 1.17e-06 M | 1.17e-06 M | -5.9327 M | 1.17 µM |  |  |  |  |  |  |  |
| CC(C)C[C@H](NC(=O)[C@H](CCc1ccccc1)NC(=O)CN1CCOCC1)C(=O)N[C@@H](Cc1ccccc1)C(=O)N[C@@H](CC(C)C)C(=O)[C@@]1(C)CO1 [NCGC00249613-01] | -1.1 | -103.056 | -99.72 | 2.33e-06 M | 2.33e-06 M | -5.6327 M | 2.33 µM |  |  |  |  |  |  |  |
| CCN1CCN(CC(=O)Nc2ccc(-c3cccc4c(=O)cc(N5CCOCC5)oc34)c3sc4ccccc4c23)CC1 [NCGC00250387-03] | -2.4 | -68.382 | -59.211 | 2.33e-05 M | 2.33e-05 M | -4.6327 M | 23.3 µM |  |  |  |  |  |  |  |
| CC(C)(C)OC(=O)Nc1ccc(-c2cc(C(=O)NCCCCCCC(=O)NO)no2)cc1 [NCGC00250390-04] | -2.2 | -83.763 | -67.554 | 2.09e-06 M | 2.09e-06 M | -5.6796 M | 2.09 µM |  |  |  |  |  |  |  |
| CC[C@@H]1C(=O)N(C)c2cnc(Nc3ccc(C(=O)NC4CCN(C)CC4)cc3OC)nc2N1C1CCCC1 [NCGC00253438-01] | -1.1 | -120.006 | -99.011 | 2.33e-06 M | 2.33e-06 M | -5.6327 M | 2.33 µM |  |  |  |  |  |  |  |
| NC(=O)C1(N2CCCCC2)CCN(CCCN2c3ccccc3CCc3ccc(Cl)cc32)CC1 [NCGC00253595-01] | -3 | -112.083 | -100.465 | 2.61e-05 M | 2.61e-05 M | -4.5827 M |  |  |  |  |  |  |  |  |
| C/C=C(/C)C(=O)O[C@H]1C(C)=C2[C@H]([C@@H]1OC(=O)CCCCCCC)[C@@](C)(OC(C)=O)C[C@H](OC(=O)CCC)[C@@]1(O)[C@H]2OC(=O)[C@@]1(C)O [NCGC00261947-01] | -1.2 | -69.727 | -98.941 | 3.29e-06 M | 3.29e-06 M | -5.4827 M | 3.29 µM |  |  |  |  |  |  |  |
| Cc1ccc(C(N)=O)cc1Nc1nccc(-c2cn(C(C)C)c3cnccc23)n1 [NCGC00263020-01] | -1.1 | -104.089 | -98.725 | 7.37e-06 M | 7.37e-06 M | -5.1327 M | 7.37 µM |  |  |  |  |  |  |  |
| Cc1nc2cnc3ccc(C#Cc4cccnc4)cc3c2n1-c1ccc(C(C)(C)C#N)cc1 [NCGC00263088-01] | -1.1 | -103.241 | -92.032 | 5.85e-06 M | 5.85e-06 M | -5.2327 M | 5.85 µM |  |  |  |  |  |  |  |
| COc1cc(OC2CCN(C)CC2)ccc1Nc1ncc2c(n1)n(C1CCCC1)c(=O)n2C [NCGC00263090-01] | -1.2 | -50.634 | -54.42 | 6.76e-06 M | 6.76e-06 M | -5.1699 M | 6.76 µM |  |  |  |  |  |  |  |
